Our source for the inhibition values is patent EP2468728A1, “2-(1-phenyl-4,5,6,7-tetrahydro-1H-indazol-4-YL)ethylamine derivatives useful as sigma receptor inhibitors” (Laboratorios del. Dr. Esteve, S.A., priority 2010, dated 2012).

Sequence of σ1-receptor (Q60492 whole entry): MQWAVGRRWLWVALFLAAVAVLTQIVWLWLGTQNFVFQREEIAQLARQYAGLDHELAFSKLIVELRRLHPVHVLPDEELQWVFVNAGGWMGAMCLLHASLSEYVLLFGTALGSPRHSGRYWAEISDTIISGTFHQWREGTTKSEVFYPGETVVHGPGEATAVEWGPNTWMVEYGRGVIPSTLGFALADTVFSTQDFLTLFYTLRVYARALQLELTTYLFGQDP

The assay addresses σ1-receptor (Cavia porcellus, UniProt Q60492). Nature of the assay: sigma-1 receptor binding assay, [3H](+)-pentazocine, brain membranes. To be noted: 1µM compound; [3H](+)-pentazocine 0.5 nM; guinea pig brain membranes; 37°C for 150 min; read-out: binding sigma-1 % Inh (1µM). As to the method: Some representative compounds of the invention were tested for their activity as sigma (sigma-1) inhibitors. The following protocols were followed:
Brain membrane preparation and binding assays for the σ1-receptor were performed as described (DeHaven-Hudkins et al., 1992) with some modifications. In brief, guinea pig brains were homogenized in 10 vols. (w/v) of Tris-HCl 50 mM 0.32 M sucrose, pH 7.4, with a Kinematica Polytron PT 3000 at 15000 r.p.m. for 30 s. The homogenate was centrifuged at 1000g for 10 min at 4°C and the supernatants collected and centrifuged again at 48000g for 15 min at 4°C. The pellet was resuspended in 10 volumes of Tris-HCl buffer (50 mM, pH 7.4), incubated at 37°C for 30 min, and centrifuged at 48000g for 20 min at 4°C. Following this, the pellet was resuspended in fresh Tris-HCl buffer (50 mM, pH 7.4) and stored on ice until use.
Each assay tube contained 10 µL of [^3H](+)-pentazocine (final concentration of 0.5 nM), 900 µL of the tissue suspension to a final assay volume of 1 mL and a final tissue concentration of approximately 30 mg tissue net weight/mL. Non-specific binding was defined by addition of a final concentration of 1 µM haloperidol. All tubes were incubated at 37°C for 150 min before termination of the reaction by rapid filtration over Schleicher & Schuell GF 3362 glass fibre filters [previously soaked in a solution of 0,5% polyethylenimine for at least 1 h]. Filters were then washed with four times with 4 mL of cold Tris-HCl buffer (50 mM, pH 7.4). Following addition of scintillation cocktail, the samples were allowed to equilibrate overnight. The amount of bound radioactivity was determined by liquid scintillation spectrometry using a Wallac Winspectral 1414 liquid scintillation counter. Protein concentrations were determined by the method of Lowry et al. (1951).
In the case of `[O-][N+]1(CCC2CCCc3c2cnn3-c2ccccc2)CCOCC1` (stereo not drawn) [Example 1, 4-(2-(1-phenyl-4,5,6,7-tetrahydro-1H-indazol-4-yl)ethyl)morpholine N-oxide], the inhibition at 1 µM was 60%.
On to `[O-][N+]1(CC[C@H]2CCCc3c2cnn3-c2ccccc2)CCOCC1` [Example 3, (R)-4-(2-(1-phenyl-4,5,6,7-tetrahydro-1H-indazol-4-yl)ethyl)morpholine N-oxide], for which the inhibition at 1 µM was 76.4%.
As for `[O-][N+]1(CC[C@@H]2CCCc3c2cnn3-c2ccccc2)CCOCC1` [Example 5, (S)-4-(2-(1-phenyl-4,5,6,7-tetrahydro-1H-indazol-4-yl)ethyl)morpholine N-oxide], the inhibition at 1 µM worked out at 98%.
